# Experimental data taken from patent publication US20230233690A1, “ANDROGEN RECEPTOR PROTEIN DEGRADERS” (THE REGENTS OF THE UNIVERSITY OF MICHIGAN, priority 2020, published 2023).
# Where two headings read alike, the source gives them in different places.
# How the values were obtained:
# AR protein = molecular target: T1, AR protein (Homo sapiens, UniProt P10275); assay: Western blotting of AR protein degradation in VCaP cells; type: cell-based
# T1 construct: endogenous in cells; host or cells: VCaP
# T1 sequence (P10275 1-920): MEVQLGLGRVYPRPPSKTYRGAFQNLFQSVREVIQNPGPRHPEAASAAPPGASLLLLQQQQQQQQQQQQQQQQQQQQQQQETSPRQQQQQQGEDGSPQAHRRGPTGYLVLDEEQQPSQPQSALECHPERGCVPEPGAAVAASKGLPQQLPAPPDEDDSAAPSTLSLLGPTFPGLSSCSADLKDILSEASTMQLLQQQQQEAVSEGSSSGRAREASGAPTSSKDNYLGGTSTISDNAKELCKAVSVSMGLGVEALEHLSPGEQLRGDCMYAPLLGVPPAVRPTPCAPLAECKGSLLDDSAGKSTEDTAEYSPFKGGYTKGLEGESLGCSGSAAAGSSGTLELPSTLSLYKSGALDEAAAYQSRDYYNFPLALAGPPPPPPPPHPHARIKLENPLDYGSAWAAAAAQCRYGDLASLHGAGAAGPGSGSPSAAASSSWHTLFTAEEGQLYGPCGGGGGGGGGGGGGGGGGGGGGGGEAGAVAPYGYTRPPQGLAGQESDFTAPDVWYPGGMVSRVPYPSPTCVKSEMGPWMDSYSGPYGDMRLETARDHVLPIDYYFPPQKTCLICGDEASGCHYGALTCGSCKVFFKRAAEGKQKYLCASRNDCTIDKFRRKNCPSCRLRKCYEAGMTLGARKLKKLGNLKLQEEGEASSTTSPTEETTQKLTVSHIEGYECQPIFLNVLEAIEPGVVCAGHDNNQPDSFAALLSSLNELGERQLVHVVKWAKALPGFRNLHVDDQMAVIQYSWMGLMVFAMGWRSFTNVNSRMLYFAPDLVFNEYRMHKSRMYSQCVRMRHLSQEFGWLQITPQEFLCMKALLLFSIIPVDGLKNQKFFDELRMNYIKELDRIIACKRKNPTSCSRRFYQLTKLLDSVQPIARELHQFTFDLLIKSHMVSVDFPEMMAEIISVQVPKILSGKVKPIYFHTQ
# Procedure: The treated cells were lysed with RIPA buffer. […] GAPDH was used as a loading control.
# Bands were quantified with ImageJ software. The relative numbers of each band obtained from normalization with its corresponding GAPDH level were compared with Prism 8 software. The DC50 values were produced from Prism 8, and the DC90 values were calculated with an equation=Bottom+(Top−Bottom)/(1+10^((Log EC50−X)*HillSlope) based on DC50 and Hillslope values.
# [1] = PK parameters in male mice (Table 9); type: in vivo; conditions: for Vd: read-out: Vss
# Procedure: The pharmacokinetics (PK) of representative Compounds of the Disclosure were evaluated in mice or rats to provide an assessment of their oral bioavaibility. All animal experiments were performed under the guidelines of the University of Michigan Committee for Use and Care of Animals and using an approved animal protocol.
# [2] = ICR, mouse, in vivo, IV 1 mg/kg
# [3] = ICR, mouse, in vivo, IV 1 mg/kg, read-out: AUC(0-t)
# [4] = ICR, mouse, in vivo, PO 3 mg/kg
# [5] = ICR, mouse, in vivo, PO 3 mg/kg, read-out: AUC(0-t)
# [6] = ICR, mouse, in vivo, PO 3 mg/kg, read-out: Cmax
# [7] = ICR, mouse, in vivo, PO 3 mg/kg, read-out: Tmax
# [8] = ICR, mouse, in vivo, IV 2 mg/kg
Structure (SMILES),% AR protein degradation in VCaP Cells (AR protein; 0.001 μM) [%],% AR protein degradation in VCaP Cells (AR protein; 0.01 μM) [%],% AR protein degradation in VCaP Cells (AR protein; 0.1 μM) [%],% AR protein degradation in VCaP Cells (AR protein; 1 μM) [%],"clearance [1, 2] [mL/min/kg]","Vd [1, 2] [L/kg]",F ([1]; PO 3 mg/kg vs IV 1 mg/kg) [%],AUC(0-t) ([1]; IV 1 mg/kg) [ng·h/mL],T1/2 ([1]; IV 1 mg/kg) [h],Vss ([1]; IV 1 mg/kg) [L/kg],AUC(0-t) ([1]; PO 3 mg/kg) [ng·h/mL],Cmax ([1]; PO 3 mg/kg) [ng/mL],T1/2 ([1]; PO 3 mg/kg) [h],Tmax ([1]; PO 3 mg/kg) [h],further results
"N#Cc1ccc(O[C@H]2CC[C@H](NC(=O)c3ccc(N4CCN(C5CCN(c6ccc7c(c6)C(=O)N(C6CCC(=O)NC6=O)C7=O)CC5)CC4)cc3)CC2)cc1Cl (some centres unmarked) [compound 222, N-((1r,4r)-4-(3-chloro-4-cyanophenoxy)cyclohexyl)-4-(4-(1-(2-(2,6-dioxopiperidin-3-yl)-1,3-dioxoisoindolin-5-yl)piperidin-4-yl)piperazin-1-yl)benzamide]",63,59,60,43,7.33,4.75,33,,,,,,,,"half-life [1, 2]: 9 h; AUC(0-t) [1, 3]: 1980 ng·h/mL; half-life [1, 4]: 11.3 h; AUC(0-t) [1, 5]: 1990 ng·h/mL; Cmax [1, 6]: 122 ng/mL; Tmax [1, 7]: 6 h"
"CN(c1ccc(C#N)c(Cl)c1)[C@H]1CC[C@H](NC(=O)c2ccc(N3CCC(CN4CCN(c5ccc6c(c5)C(=O)N(C5CCC(=O)NC5=O)C6=O)CC4)CC3)cc2)CC1 (some centres unmarked) [compound 234, N-((1r,4r)-4-((3-chloro-4-cyanophenyl)(methyl)amino)cyclohexyl)-4-(4-((4-(2-(2,6-dioxopiperidin-3-yl)-1,3-dioxoisoindolin-5-yl)piperazin-1-yl)methyl)piperidin-1-yl)benzamide]",55,91,93,90,,,35,693,12.5,17.6,737.5,45.0,27.0,6.0,Cl ([1]; IV 1 mg/kg): 18.3 mL/min/kg
"CN(c1ccc(C#N)c(Cl)c1)[C@H]1CC[C@H](NC(=O)c2ccc(N3CC(N4CCN(c5ccc6c(c5)C(=O)N(C5CCC(=O)NC5=O)C6=O)CC4)C3)cc2)CC1 (some centres unmarked) [compound 240, N-((1r,4r)-4-((3-chloro-4-cyanophenyl)(methyl)amino)cyclohexyl)-4-(3-(4-(2-(2,6-dioxopiperidin-3-yl)-1,3-dioxoisoindolin-5-yl)piperazin-1-yl)azetidin-1-yl)benzamide]",82,87,88,75,3.5,,67,4234,7.5,2.1,8637,484,26.8,4.7,
"CN(c1ccc(C#N)c(Cl)c1)[C@H]1CC[C@H](NC(=O)c2ccc(N3CCN(CC4CCN(c5ccc6c(c5)C(=O)N(C5CCC(=O)NC5=O)C6=O)CC4)CC3)cc2)CC1 (some centres unmarked) [compound 233, N-((1r,4r)-4-((3-chloro-4-cyanophenyl)(methyl)amino)cyclohexyl)-4-(4-((1-(2-(2,6-dioxopiperidin-3-yl)-1,3-dioxoisoindolin-5-yl)piperidin-4-yl)methyl)piperazin-1-yl)benzamide]",49,78,87,76,8.5,16.8,30,,,,,,,,"half-life [1, 2]: 26 h; AUC(0-t) [1, 3]: 1040 ng·h/mL; half-life [1, 4]: 41 h; AUC(0-t) [1, 5]: 940 ng·h/mL; Cmax [1, 6]: 60 ng/mL; Tmax [1, 7]: 4 h"
"CN(c1ccc(C#N)c(Cl)c1)[C@H]1CC[C@H](NC(=O)c2ccc(N3CCN(C4CN(c5ccc6c(c5)C(=O)N(C5CCC(=O)NC5=O)C6=O)C4)CC3)cc2)CC1 (some centres unmarked) [Cpd. No. 238, N-((1r,4r)-4-((3-chloro-4-cyanophenyl)(methyl)amino)cyclohexyl)-4-(4-(1-(2-(2,6-dioxopiperidin-3-yl)-1,3-dioxoisoindolin-5-yl)azetidin-3-yl)piperazin-1-yl)benzamide]",78,90,89,78,,,,,,,,,,,AUC(0-t) ([1]; IV 2 mg/kg): 6481 ng·h/mL; Cl ([1]; IV 2 mg/kg): 5 mL/min/kg; T1/2 ([1]; IV 2 mg/kg): 5.5 h; Vss ([1]; IV 2 mg/kg): 1.8 L/kg; AUC(0-t) ([1]; PO 5 mg/kg): 8254 ng·h/mL; Cmax ([1]; PO 5 mg/kg): 1140 ng/mL; T1/2 ([1]; PO 5 mg/kg): 4.6 h; Tmax ([1]; PO 5 mg/kg): 2.0 h; F ([1]; PO 5 mg/kg vs IV 2 mg/kg): 51%
"N#Cc1ccc(O[C@H]2CC[C@H](NC(=O)c3ccc(N4CCN(C5CN(c6ccc7c(c6)C(=O)N(C6CCC(=O)NC6=O)C7=O)C5)CC4)cc3)CC2)cc1Cl (some centres unmarked) [compound 225, N-((1r,4r)-4-(3-chloro-4-cyanophenoxy)cyclohexyl)-4-(4-(1-(2-(2,6-dioxopiperidin-3-yl)-1,3-dioxoisoindolin-5-yl)azetidin-3-yl)piperazin-1-yl)benzamide]",61,48,15,−23,,,,,,,,,,,"clearance [1, 8]: 4.33 mL/min/kg; half-life [1, 8]: 6.58 h; AUC(0-t) ([1]; ICR, mouse, in vivo, IV 2 mg/kg, read-out: AUC(0-t)): 6760 ng·h/mL; Vd [1, 8]: 2.23 L/kg; half-life ([1]; ICR, mouse, in vivo, PO 5 mg/kg): 5.8 h; AUC(0-t) ([1]; ICR, mouse, in vivo, PO 5 mg/kg, read-out: AUC(0-t)): 13100 ng·h/mL; Cmax ([1]; ICR, mouse, in vivo, PO 5 mg/kg, read-out: Cmax): 2130 ng/mL; Tmax ([1]; ICR, mouse, in vivo, PO 5 mg/kg, read-out: Tmax): 2 h; F ([1]; PO 5 mg/kg vs IV 2 mg/kg): 77%"
"CN(c1ccc(C#N)c(Cl)c1)[C@H]1CC[C@H](NC(=O)c2ccc(N3CC(CN4CCN(c5ccc6c(c5)C(=O)N(C5CCC(=O)NC5=O)C6=O)CC4)C3)cc2)CC1 (some centres unmarked) [compound 239, N-((1r,4r)-4-((3-chloro-4-cyanophenyl)(methyl)amino)cyclohexyl)-4-(3-((4-(2-(2,6-dioxopiperidin-3-yl)-1,3-dioxoisoindolin-5-yl)piperazin-1-yl)methyl)azetidin-1-yl)benzamide]",73,91,95,94,,,34,1118,8.8,8.25,1134,92.2,8.1,4.0,Cl ([1]; IV 1 mg/kg): 13.2 mL/min/kg
"N#Cc1ccc(O[C@H]2CC[C@H](NC(=O)c3ccc(N4CCC(N5CCN(c6ccc7c(c6)C(=O)N(C6CCC(=O)NC6=O)C7=O)CC5)CC4)cc3)CC2)cc1Cl (some centres unmarked) [compound 223, N-((1r,4r)-4-(3-chloro-4-cyanophenoxy)cyclohexyl)-4-(4-(4-(2-(2,6-dioxopiperidin-3-yl)-1,3-dioxoisoindolin-5-yl)piperazin-1-yl)piperidin-1-yl)benzamide]",73,91,85,75,6.5,3.04,30,2425,6.1,,2154,207,5.6,4.0,
